Experimental findings from US20040023901A1, “Nucleoside 5'-monophosphate mimics and their prodrugs” (priority 2002, published 2004) are described below.

The conditions of data set [1]: bovine.
Method: (§15) Fetal calf serum purchased from HyClone Corporation was mixed 1:1 with each compound containing Tris-HCl buffer and MgCl2. Typically the total volume used for the experiment was 500 μl.
(§16) The final concentrations of the reaction components were as follows:
(§17) The reaction mixtures were made up and incubated at 37° C. At appropriate times aliquots of 25 μl were removed and added to 65 μl ice-cold methanol. These solutions were incubated for at least one hour at −20° C. and typically overnight. After incubation samples were centrifuged for at least 20 minutes at high speed in a microcentrifuge. The supernatant was transferred to a clean tube and the extract was dried under vacuum in a LabConco Centrivap Concentrator. The dried extracts were resuspended in dH2O and filtered to remove particulate before analysis on reverse phase HPLC.
(§18) The reverse phase HPLC columns used for the analysis were either a Phenomenex C18 Aqua column (2×100 mm) or the Phenomenex C18 Aqua column (3×150 mm) used with the appropriate guard column. The HPLC was run at 0.2 ml/min (for the 2×100 mm column) or at 0.5 ml/min (for the 3×150 mm column) with the following buffer system: 5 mM tetrabutylammonium acetate, 50 nM ammonium phosphate, and an acetonitrile gradient running from 5% up to as high as 60%. The amount of remaining parent compound at each time point was used to determine the half-life of the compound. […] Unmodified nucleoside monophosphates were used as positive controls.
Data set [2] deals with purified human type II IMPDH (Homo sapiens, UniProt P12268). Nature of the data set: Assay for inhibition of IMPDH activity (human type II). In kind it is biochemical. To be noted: 50 uM IMP, 150 uM NAD, 25° C. As to the method:
(§1) The assays employed to measure the inhibition of inosine monophosphate dehydrogenase (IMPDH) activity are described below. The effectiveness of the compounds of the present invention as inhibitors of IMPDH enzymes was determined in the following assays. This assay was used to measure the ability of the nucleotide mimics of the present invention to inhibit the enzymatic reaction catalyzed by IMPDH enzymes. The assay is useful for measuring the activity of IMPDH from several organisms, including human, fungal, and bacterial isoforms. In the enzymatic reaction, the oxidation of inosine 5′-monophosphate (IMP) to xanthosine 5′-monophosphate (XMP) is coupled to the reduction of nicotinamide adenine dinucleotide (NAD). This reaction is monitored at 340 nm using a UV/VIS spectrophotometer or at 474 nm using a fluorometer (excitation wavelength=344 nm). This assay is a modification of a reported method (W. Wang and L. Hedstrom, “A Potent ‘Fat Base’ Nucleotide Inhibitor of IMP Dehydrogenase,” Biochemistry 1998, 37, 11949-52).
(§2) Assay Buffer Conditions: (200 uL-total/reaction)
(§3) 30 nM purified human type II IMPDH, or
(§4) 7.5 nM purified Candida albicans IMPDH
(§5) The compounds were tested at various concentrations up to 500 uM final concentration. The standard IMPDH assay is performed in a 96-well plate (Corning). An appropriate volume of assay buffer, containing the substrates IMP and NAD, was pipetted into the plate wells. Nucleoside derivatives of the present invention were added to the reactions at the desired concentrations. The reactions were initiated by the addition of enzyme. The reactions were allowed to proceed for 5 minutes at 25° C. The production of NADH was monitored at 340 nm on a microplate spectrophotometer (Molecular Devices Corp, Sunnyvale, Calif.). Initial velocity data (mA min^−1) was collected and fit to the equations below. Blank reactions were prepared in parallel with the test reactions in which enzyme was omitted from the reactions, substituted by an appropriate volume of enzyme diluent.
(§6) The percentage of inhibition was calculated according to the following equation:
(§7) % Inhibition=[1−(mA min^−1 in test reaction−mA min^−1 in blank)/(mA min^−1 in control reaction−mA min^−1 in blank)]×100.
(§8) Each inhibitor was titrated over an appropriate range of concentrations, and inhibition constants were determined using the following equations where v=initial velocity, Vm=maximal velocity, S=substrate, I=inhibitor, Km=Michaelis constant, and Ki=inhibition constant:
(§9) Michaelis-Menten Equation: […]
(§10) Competitive Inhibition Equation:
(§11) Inhibition constants (Ki) for irreversible inhibitors of IMPDH were determined using the following three equations where kobs=observed rate constant, t=time, A=absorbance at time t, A0=initial absorbance at time zero, V0=initial rate, S=substrate, I=inhibitor, k2=[…] rate constant, Km=Michaelis constant, Ki, app=apparent inhibition constant, and Ki=inhibition constant:
(§12) Irreversible Inhibition Equations 1-3:
(§13) A−A0=V0[1−exp(−kobst)] (equation 1)
(§14) Kobs=k2[I]/(Ki, app+[I]) (equation 2)

A short description of data set [3]: in vitro. To be noted: bovine, 10% (v/v) fetal calf serum, pH 7.4.
Method: as §15, §16, §17, §18
The target of data set [4] is purified Candida albicans IMPDH (Candida albicans, UniProt O00086). Nature of the data set: Assay for inhibition of IMPDH activity (C. albicans). In kind it is biochemical. To be noted: for Ki: C. albicans IMPDH, 50 uM IMP, 150 uM NAD, 25° C.; for inhibition at 100 µM: read-out: % Inhibition at 100 μM C. albicans. As to the method:
as §1, §2, §3, §4, §5, §6, §7, §8, §9, §10, §11, §12, §13, §14

A short description of data set [5]: Serum stability assessment in fetal calf serum. To be noted: 10% (v/v) fetal calf serum, 37° C., 500 μM nucleotide mimic, time points through 24 hours.
Method: as §15, §16, §17, §18

Read-outs that look alike come from different tables or passages of the source. Where only a bound is given, the exact number is not on record here.

Chain of purified Candida albicans IMPDH (O00086 whole entry): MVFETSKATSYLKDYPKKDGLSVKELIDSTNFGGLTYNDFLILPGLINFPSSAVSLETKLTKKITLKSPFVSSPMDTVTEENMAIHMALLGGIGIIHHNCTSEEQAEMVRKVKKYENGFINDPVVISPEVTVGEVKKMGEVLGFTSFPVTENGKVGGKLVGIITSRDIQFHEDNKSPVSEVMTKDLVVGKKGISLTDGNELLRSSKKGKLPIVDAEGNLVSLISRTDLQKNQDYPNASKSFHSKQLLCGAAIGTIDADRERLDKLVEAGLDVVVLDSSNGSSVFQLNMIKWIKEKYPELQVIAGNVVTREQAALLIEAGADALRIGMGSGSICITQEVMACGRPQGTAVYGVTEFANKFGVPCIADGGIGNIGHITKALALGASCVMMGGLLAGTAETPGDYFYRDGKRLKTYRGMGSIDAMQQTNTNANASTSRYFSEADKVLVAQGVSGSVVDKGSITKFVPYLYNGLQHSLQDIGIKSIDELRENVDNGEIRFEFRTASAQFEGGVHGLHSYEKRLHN

In the case of “5-Ethynyl-1-(5-methylphopsphonyl-β-D-ribofuranosyl)imidazole-4-carboxamide [Compound 10]”, the “Serum t1/2” value in data set [1] was above 8 h.

As to `NC(=O)c1ncn([C@@H]2O[C@H](COP(=O)(O)S)[C@H](O)C2O)n1` (stereo partly drawn) [Compound 1, 1-β-D-ribofuranosyl-1,2,4-triazole-3-carboxamide 5′-phosphothioate], the inhibition constant (Ki) (as a rule, the equilibrium dissociation constant of an inhibitor or competing ligand from its target) in data set [2] is 0.94 µM; in data set [4] it was 1.34 µM. In addition, in data set [3], the half-life (in general, how long it takes for the measured level to halve) at 500 μM is 18 h.

`C#Cc1c(C(N)=O)ncn1[C@@H]1O[C@H](COP(=O)(O)S)[C@H](O)C1O` (stereo partly drawn) [Compound 2, 5-Ethynyl-1-(1-D-ribofuranosyl)imidazole-4-carboxamide 5′-phosphorothioate]: the Ki in data set [2] was found to be 34.2 µM. Besides, the inhibition (commonly how much of the control response was suppressed) at 100 µM in data set [4] is 82%.

`NC(=O)c1ncn([C@@H]2O[C@H](COCP(=O)(O)O)[C@@H](O)[C@H]2O)n1` [Compound 19, 1-[5-O-(Dihydroxyphosphinyl)methyl-β-D-ribofuranosyl]-1,2,4-triazole-3-carboxamide]: the Ki in data set [2] worked out at 85 µM. This lies in the double-digit micromolar range.

Take `NC(=O)c1ncn([C@@H]2O[C@H](CP(=O)(O)O)[C@@H](O)[C@H]2O)n1` [Compound 39, 1-[5-Deoxy-5-(dihydroxyphosphinyl)-β-D-ribofuranosyl]-1,2,4-triazole-3-carboxamide]: the Ki in data set [2] stood at 1.82 µM; in data set [4], 1.48 µM.

As to `NC(=O)c1ncn([C@@H]2O[C@H](C[PH](=O)O)[C@H](O)C2O)n1` (stereo partly drawn) [Compound 40, 1-[5-Deoxy-5-(hydroxyl-H-phosphinyl)-β-D-ribofuranosyl]-11,24-triazole-3-carboxamide], the half-life at 500 μM in data set [3] was above 24 h.

Take `NC(=O)c1ncn([C@@H]2O[C@H](CP(=O)(O)O)[C@H](O)C2O)c1O` (stereo partly drawn) [Compound 44, 4-Carbamoyl-1-[5-deoxy-5-(dihydroxyphosphinyl)-β-D-ribofuranosyl]-1,3-imidazolium-5-olate]: the Ki in data set [2] came to 7.92 µM. Further, in data set [4], the inhibition at 100 µM is 98.1%.

As to `NC(=O)c1ncn([C@@H]2O[C@H](CC(F)(F)P(=O)(O)O)[C@H](O)C2O)n1` (stereo partly drawn) [Compound 48], the Ki was 27.1 µM in data set [2] and 20.4 µM in data set [4]. This compound came in with a half-life at 500 μM in data set [3] above 24 h.

As for `NC(=O)c1ncn([C@@H]2O[C@H](CC(F)(F)P(=O)(O)O)[C@H](O)C2O)c1O` (stereo partly drawn) [Compound 50, 4-Carbamoyl-1-[5,6-dideoxy-6-(dihydroxyphosphinyl)-6,6-difluoro-β-D-allofuranosyl]-1,3-imidazolium-5-olate], the Ki in data set [2] is 2.04 µM. Further, in data set [4], the inhibition at 100 µM came out at 71.5%.

As for `NC(=O)c1ncn([C@@H]2O[C@H](CO[PH](O)=S)[C@H](O)C2O)n1` (stereo partly drawn) [Compound 53, 1-[5-O-(H-Thiophosphonyl)-β-D-ribofuranosyl]-1,2,4-triazole-3-carboxamide], the figures for the inhibition constant (Ki) in data set [2] and in data set [4] were 34.7 µM and 10.7 µM, respectively.

Regarding `C#Cc1c(C(N)=O)ncn1[C@@H]1O[C@H](COP(=O)(O)O)[C@@H](O)[C@H]1O` [EICAR 5′-monophosphate], in data set [5], the “Serum t1/2” value came out at 3 h.

Take `NC(=O)c1ncn([C@@H]2O[C@H](COP(=O)(O)O)[C@@H](O)[C@H]2O)n1` [Ribavirin 5′-monophosphate]: the “Serum t1/2” value in data set [5] was determined as 6 h.
